Values of other authors, collected in patent US20240408115A1, “COMPOSITION AND METHODS OF TREATMENT USING […] - ENHANCED SUPPLEMENTATION” (Xygenyx Inc., priority 2023, published 2024).
Non-standard residues stand in square brackets, D forms with d. Residues, ends and D or L forms follow the SMILES beside them. Cit = NC(=O)NCCC[C@H](N)C(=O)O

Assays:
[1] = in vivo
[2] = penetration enhancer for transdermal drugs
[3] = compared to α-tocopherol = 1.0
[4] = dietary intake in equal portions
[5] = dietary supplementation, doses up to 400 IU/day
F2-isoprostane = settings: large doses of 1600-3200 IU/day
[6] = system: wide dynamic range neurons in the ventroposterolateral nucleus of the thalamus; settings: in vivo
[7] = in vivo; remark: listed apart in the source
[8] = topical formulations, within four weeks of treatment
[9] = topical, concentrations 0.5-5%

Molecule: HGH: hormone comprising a peptide chain that is synthesized in the pituitary gland
- biological half-life [1]: 10-20 minutes

Molecule: CC(C)[C@@H]1CC[C@@H](C)C[C@H]1O [Menthol]
- increase of transdermal drug uptake (factor) [2]: ≥ 10

Molecule: Cc1c(O)cc2c(c1C)O[C@](C)(CCC[C@H](C)CCC[C@H](C)CCCC(C)C)CC2 [γ-tocopherol]
- relative biological activity [3]: 0.1
- concentration in vivo relative to α-tocopherol [4]: roughly 10%

Molecule: Cc1c(C)c2c(c(C)c1O)CC[C@@](C)(CCC[C@H](C)CCC[C@H](C)CCCC(C)C)O2 [α-tocopherol]
- reduction of risk of coronary disease [5]: up to 34%
- reduction of risk of developing neurodegenerative diseases such as Alzheimer's Syndrome or dementia ([5]; controlled trials): ≤ 24%
- blood plasma concentration of F2-isoprostane (F2-isoprostane): significantly lower
- relative biological activity [3]: 1.0

Molecule: CCCCCc1cc(O)c2c(c1)OC(C)(C)C1CCC(C)=CC21 (stereo not drawn) [THC, Δ-9-tetrahydrocannabinol]
- potency in mediating pain relative to morphine [6]: ten times more powerful than morphine

Molecule: CCNC(=O)CC[C@H](N)C(=O)O [Theanine]
- dose considered safe and well-tolerated [7]: up to 400 mg per day

Molecule: Cc1cc(O)cc2c1O[C@](C)(CCC[C@H](C)CCC[C@H](C)CCCC(C)C)CC2 [δ-tocopherol]
- relative biological activity [3]: 0.03

Molecule: Cc1cc(O)c(C)c2c1O[C@](C)(CCC[C@H](C)CCC[C@H](C)CCCC(C)C)CC2 [β-tocopherol]
- relative biological activity [3]: 0.5

Molecule: CC[C@H](C)[C@H](NC(=O)[C@H](CC(=O)O)NC(=O)[C@@H](N)CCCCN)C(=O)N[C@@H](CCCNC(N)=O)C(N)=O [Tripeptide-10 citrulline] (H-KDI[Cit]-NH2)
- improvement of suppleness [8]: ≤ 54%

Molecule: C=CCCCCCCCCC(=O)N[C@@H](Cc1ccccc1)C(=O)O [UP, Undecylenoyl phenylalanine]
- time to skin lightening effects [9]: ≥ 7 days

Molecule: CC12CCC(CC1)C(C)(C)O2 [eucalyptol, 1,8-epoxy-p-menthane]
- increase of transdermal drug uptake (factor) [2]: more than 10
